Measured values as given in PMC9502272, “A Metabolomics Approach for Predicting OATP1B-Type Transporter-Mediated Drug–Drug Interaction Liabilities” (Pharmaceutics, 2022).
Structures can show the parent of a compound that is named as a salt. Where two headings read alike, the source gives them in different places.

Experiments:
Oatp1b2 [1] = target: T1, Oatp1b2 (Mus musculus, UniProt Q9JJL3); conditions: in vivo
T1 sequence (Q9JJL3 1-689): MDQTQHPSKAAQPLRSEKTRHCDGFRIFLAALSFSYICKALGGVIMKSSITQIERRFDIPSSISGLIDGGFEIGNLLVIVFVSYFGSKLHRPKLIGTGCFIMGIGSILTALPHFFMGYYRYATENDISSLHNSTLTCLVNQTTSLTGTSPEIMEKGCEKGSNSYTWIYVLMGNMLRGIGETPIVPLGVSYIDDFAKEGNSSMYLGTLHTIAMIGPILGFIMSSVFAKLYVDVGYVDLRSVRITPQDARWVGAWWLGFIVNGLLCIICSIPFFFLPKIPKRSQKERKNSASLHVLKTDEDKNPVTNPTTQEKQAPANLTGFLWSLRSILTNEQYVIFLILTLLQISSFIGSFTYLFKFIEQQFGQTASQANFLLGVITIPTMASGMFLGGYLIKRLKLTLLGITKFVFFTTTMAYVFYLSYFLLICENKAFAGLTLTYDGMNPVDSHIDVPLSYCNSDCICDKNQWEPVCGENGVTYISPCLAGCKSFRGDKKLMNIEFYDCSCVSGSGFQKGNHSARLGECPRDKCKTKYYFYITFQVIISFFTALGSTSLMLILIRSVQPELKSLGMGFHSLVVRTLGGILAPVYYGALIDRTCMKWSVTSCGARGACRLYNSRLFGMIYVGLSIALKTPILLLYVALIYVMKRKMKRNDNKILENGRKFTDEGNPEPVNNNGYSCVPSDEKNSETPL

Oatp1b2 [2] = target: T1, Oatp1b2; assay: Untargeted metabolomics of plasma from untreated wild-type and Oatp1b2(−/−) mice; conditions: for Fold of Change KO/WT: plasma of untreated Oatp1b2-deficient (KO) vs wild-type (WT) mice, semi-quantitative, positive = higher in KO, n = 6 per group; for Mean value KO: plasma of untreated Oatp1b2-deficient mice; for Mean value KO / Mean value WT: raw area counts rescaled to median = 1; for Mean value WT: plasma of untreated wild-type mice

Row | Molecule | Fold of Change KO/WT (Oatp1b2 [1]) | Mean value KO (Oatp1b2 [1]) | Mean value WT (Oatp1b2 [1]) | Fold of Change KO/WT (Oatp1b2 [2]) | Mean value KO (Oatp1b2 [2]) | Mean value WT (Oatp1b2 [2])
1 | C[N+](C)(C)[C@@H](Cc1cnc[nH]1)C(=O)[O-] [histidine betaine (hercynine)] | 1.31 | 1.09 | .830 |  |  | 
2 | O=C(O)[C@H]1OC(O)[C@H](O)[C@@H](O)[C@@H]1O (mixture of isomers) [glucuronate] |  |  |  | 3.17 | 1.59 | .500
3 | CC(C)CCC[C@@H](C)[C@H]1CC[C@H]2[C@@H]3CCC4=CC(=O)CC[C@]4(C)[C@H]3CC[C@]12C [4-cholesten-3-one] |  |  |  | 1.29 | 1.12 | .870
4 | CC/C=C\C/C=C\C/C=C\CCCCCCCC(=O)O[C@H](COC(=O)CCCCCCC/C=C\C/C=C\CCCCC)COP(=O)([O-])OCC[N+](C)(C)C [1-linoleoyl-2-linolenoyl-GPC (18:2/18:3)] |  |  |  | 1.51 | 1.40 | .923
5 | O=C1Cc2ccccc2N1 [indolin-2-one] |  |  |  | 1.51 | 1.20 | .797
6 | CCCCCCCCCCCCCCCC(N)=O [palmitamide (16:0)] |  |  |  | 1.40 | 1.18 | .840
7 | CCCCC/C=C\C/C=C\C/C=C\C/C=C\CCCC(=O)O[C@H](COC(=O)CCCCCCC/C=C\C/C=C\CCCCC)COP(=O)(O)OCCN [1-linoleoyl-2-arachidonoyl-GPE (18:2/20:4)] |  |  |  | 1.48 | 1.26 | .854
8 | CCCCC/C=C\C/C=C\CCCCCCCC(=O)OC[C@@H](O)COP(=O)([O-])OCC[N+](C)(C)C [1-linoleoyl-GPC (18:2)] |  |  |  | 1.62 | 1.22 | .752
9 | CCCCCCCCCCCCCCCC(=O)OC[C@@H](O)COP(=O)(O)OCCN [1-palmitoyl-GPE (16:0)] |  |  |  | 1.73 | 1.33 | .765
10 | CCCCC/C=C\C/C=C\C/C=C\C/C=C\CCCC(=O)OC[C@@H](O)COP(=O)([O-])OCC[N+](C)(C)C [1-arachidonoyl-GPC (20:4n6)] |  |  |  | 1.63 | 1.27 | .775
11 | equol sulfate |  |  |  | 2.58 | 1.62 | .626
12 | O=C(O)CCCCCCCCCCCCCCCC(=O)O [heptadecanedioate (C17-DC)] |  |  |  | 1.66 | 1.36 | .818
13 | O=C(O)CCCCCCCCC(O)CC(=O)O (stereo not drawn) [3-hydroxydodecanedioate] |  |  |  | 4.32 | 1.64 | .380
14 | CCCCCCCCCCCCCCC(=O)O[C@H](CC(=O)[O-])C[N+](C)(C)C [pentadecanoylcarnitine (C15)] |  |  |  | 1.77 | 1.28 | .723
15 | CCC(C)C(O)C(=O)O (stereo not drawn) [2-hydroxy-3-methylvalerate] |  |  |  | 3.15 | 2.33 | .738
16 | CCCCC/C=C\C/C=C\C/C=C\C/C=C\CCCC(=O)OC[C@@H](O)COP(=O)(O)O [1-arachidonoyl-GPA (20:4)] |  |  |  | 1.80 | 1.17 | .652
17 | CCCCCCC(=O)NCC(=O)O [heptanoyl glycine] |  |  |  | 1.52 | 1.32 | .868
18 | OC[C@H]1O[C@@H](n2cnc3c(O)ncnc32)[C@H](O)[C@@H]1O [inosine] |  |  |  | 2.07 | 1.49 | .719
19 | CCCCCCCC/C=C\CCCCCCCC(=O)O[C@H](CC(=O)[O-])C[N+](C)(C)C [oleoylcarnitine (C18:1)] |  |  |  | 1.56 | 1.40 | .900
20 | CC(=O)Nc1ccc(C(=O)O)cc1 [4-acetamidobenzoate] |  |  |  | 2.14 | 1.46 | .685
21 | COC1=C(O)[C@@H]([C@@H](O)CO)OC1=O [2-O-methylascorbic acid] |  |  |  | 1.16 | 1.08 | .927

Row | Molecule | Fold of Change KO/WT (Oatp1b2 [1]) | Mean value KO (Oatp1b2 [1]) | Mean value WT (Oatp1b2 [1]) | Fold of Change KO/WT (Oatp1b2 [2]) | Mean value KO (Oatp1b2 [2]) | Mean value WT (Oatp1b2 [2])
22 | CCCCCCCC(=O)O[C@H](CC(=O)O)C[N+](C)(C)C [octanoylcarnitine (C8)] |  |  |  | 1.62 | 1.47 | .910
23 | Cc1cn([C@H]2C[C@H](O)[C@@H](CO)O2)c(=O)nc1N [5-methyl-2'-deoxycytidine] |  |  |  | 1.83 | 1.56 | .852
24 | enterolactone sulfate |  |  |  | 3.42 | 1.63 | .478
25 | sphingomyelin (d18:2/14:0, d18:1/14:1) |  |  |  | 1.36 | 1.14 | .839
26 | CCCCC/C=C\C/C=C\CCCCCCCCCC(=O)OC(CC(=O)[O-])C[N+](C)(C)C (stereo not drawn) [dihomo-linoleoylcarnitine (C20:2)] |  |  |  | 1.75 | 1.37 | .785
27 | CCCCC/C=C\C/C=C\CCCCCCCC(=O)OC[C@@H](O)COP(=O)(O)OC1[C@H](O)[C@H](O)C(O)[C@H](O)[C@H]1O (stereo partly drawn) [1-linoleoyl-GPI (18:2)] |  |  |  | 1.65 | 1.27 | .765
28 | CCCCCC=CCC=CCCCCCCCC(=O)OCC(O)COP(=O)(O)OCC(O)CO (stereo not drawn) [1-linoleoyl-GPG (18:2)] |  |  |  | 3.71 | 1.96 | .529
29 | Cc1ncc(CO)c(C=O)c1O [pyridoxal] |  |  |  | 1.47 | 1.28 | .868
30 | CCCCC/C=C\C/C=C\CCCCCCCC(=O)OC[C@@H](O)COP(=O)(O)O [1-linoleoyl-GPA (18:2)] |  |  |  | 2.36 | 1.41 | .595
31 | CCCCCCCCCCCCCCCCCCCC(=O)OC(CC(=O)[O-])C[N+](C)(C)C (stereo not drawn) [arachidoylcarnitine (C20)] |  |  |  | 1.36 | 1.21 | .889
32 | C=CC1=C(C)/C(=C/C2=NC(=C\c3[nH]c(/C=C4\NC(=O)C(C)=C4C=C)c(C)c3CCC(=O)O)/C(CCC(=O)O)=C2C)NC1=O [biliverdin] |  |  |  | 4.09 | 1.84 | .450
33 | O=S(=O)(O)Oc1c[nH]c2ccccc12 [3-indoxyl sulfate] |  |  |  | 1.48 | 1.19 | .804
34 | O=C(O)CCCCCCCCCC(=O)O [undecanedioate (C11-DC)] |  |  |  | 3.00 | 1.96 | .654
35 | CCCCCCCCCCCCCCC=COCC(O)COP(=O)([O-])OCC[N+](C)(C)C (stereo not drawn) [1-(1-enyl-palmitoyl)-GPC (P-16:0)] |  |  |  | 1.59 | 1.26 | .795
36 | CC(C)(O)CC(=O)O [beta-hydroxyisovalerate] |  |  |  | 1.40 | 1.17 | .835
37 | C[N+](C)(C)CCOP(=O)([O-])OC[C@H](O)CO [glycerophosphorylcholine (GPC)] |  |  |  | 1.34 | 1.12 | .836
38 | O=C(O)CCCCCCCCCCCCCCCCC(=O)O [octadecanedioate (C18-DC)] |  |  |  | 1.38 | 1.27 | .916
39 | C[C@H](CCC(=O)O)[C@H]1CC[C@H]2[C@@H]3[C@@H](O)C[C@@H]4C[C@H](O)CC[C@]4(C)[C@H]3C[C@H](O)[C@]12C [ursocholate] |  |  |  | 33.8 | 5.10 | .151
40 | C[C@H](CCC(=O)O)[C@H]1CC[C@H]2[C@@H]3C[C@H](O)[C@@H]4C[C@H](O)CC[C@]4(C)[C@H]3CC[C@]12C [hyodeoxycholate] |  |  |  | 14.7 | 3.94 | .269
41 | CCCCCCCC/C=C\CCCCCC/C=C\OC[C@@H](O)COP(=O)(O)OCCN [1-(1-enyl-oleoyl)-GPE (P-18:1)] |  |  |  | 2.16 | 1.45 | .672
